# According to PMC10591454 (European journal of medicinal chemistry, 2021):
# Read-outs that look alike come from different tables or passages of the source.
# Columns and labels:
# CYP3A4 = conditions: cited from earlier work
# HBV [1] = test: HBV replication inhibition assay; format: cell-based, HBV genotype D; conditions: for anti-HBV activity in words: initial screening, SAR discussion; for activity at 10 µM: Hepatitis B virus, HepDES19, 72 h
# HBV [2] = conditions: effective concentration 90%; cited from earlier work
# [3] = system: HBV DNA, HBsAg and pregenomic RNA; conditions: after 28 days of treatment with GLS4; cited from earlier work
# HCV genotype 1a = conditions: read-out: GT1a EC50; HCV NS5A inhibitors; cited from earlier work
# HCV genotype 1b = conditions: read-out: GT1b EC50; HCV NS5A inhibitors; cited from earlier work
structure (smiles),measurement,setting,value
C[C@@H](O[C@H]1OCCN(Cc2n[nH]c(=O)[nH]2)[C@H]1c1ccc(F)cc1)c1cc(C(F)(F)F)cc(C(F)(F)F)c1 [Aprepitant],CYP3A4 inhibition in words,CYP3A4,moderate CYP3A4 inhibitor
C[C@@H](OC[C@@]1(c2ccccc2)CC[C@]2(CCC(=O)N2)CN1)c1cc(C(F)(F)F)cc(C(F)(F)F)c1 [Rolapitant],CYP3A4 inhibition in words,CYP3A4,no inhibitory effect
"CCOC(=O)C1=C(CN2CCC3(CCNC3)C2)NC(c2nccs2)=NC1c1ccc(F)cc1Br (stereo not drawn) [Compound 5i, ethyl 6-((2,7-diazaspiro[4.4]nonan-2-yl)methyl)-4-(2-bromo-4-fluorophenyl)-2-(thiazol-2-yl)-1,4-dihydropyrimidine-5-carboxylate]",anti-HBV activity in words,HBV [1],inactive or less potent
"CCOC(=O)C1=C(CN2CC3(CCNC3)CC2=O)NC(c2nccs2)=NC1c1ccc(F)cc1Br (stereo not drawn) [Compound 5c, ethyl 4-(2-bromo-4-fluorophenyl)-6-((3-oxo-2,7-diazaspiro[4.4]nonan-2-yl)methyl)-2-(thiazol-2-yl)-1,4-dihydropyrimidine-5-carboxylate]",anti-HBV activity in words,HBV [1],inactive
"CCOC(=O)C1=C(CN2CCC3(CCNC3)CC2)NC(c2nccs2)=NC1c1ccc(F)cc1Br (stereo not drawn) [Compound 5e, ethyl 6-((2,8-diazaspiro[4.5]decan-8-yl)methyl)-4-(2-bromo-4-fluorophenyl)-2-(thiazol-2-yl)-1,4-dihydropyrimidine-5-carboxylate]",anti-HBV activity in words,HBV [1],inactive
"CCOC(=O)C1=C(CN2CCC3(CCNC3)C2=O)NC(c2nccs2)=NC1c1ccc(F)cc1Br (stereo not drawn) [Compound 5b, ethyl 4-(2-bromo-4-fluorophenyl)-6-((1-oxo-2,7-diazaspiro[4.4]nonan-2-yl)methyl)-2-(thiazol-2-yl)-1,4-dihydropyrimidine-5-carboxylate]",anti-HBV activity in words,HBV [1],inactive
"Nc1ccn([C@@H]2CS[C@H](CO)O2)c(=O)n1 [Compound 3TC, lamivudine]",activity at 10 µM,HBV [1]; read-out: Minus DNA (%) (10μM),54.6%
same,activity at 10 µM,HBV [1]; read-out: Plus DNA (%) (10μM),16.2%
"CCOC(=O)C1=C(CN2CCOCC2)NC(c2nccs2)=N[C@H]1c1ccc(F)cc1Br [GLS4, Ethyl4-(2-bromo-4-fluorophenyl)-6-(morpholinomethyl)-2-(thiazol-2-yl)-1,4-dihydropyrimidine-5-carboxylate]",EC90,HBV [2],0.0557 µg/mL
same,"HBV DNA, HBsAg and pregenomic RNA in patients",[3],strong downward trend
COC(=O)N[C@H](C(=O)N1CC2(CC2)C[C@H]1c1nc(-c2ccc3c(c2)C(F)(F)c2cc(-c4ccc5[nH]c([C@@H]6[C@H]7CC[C@H](C7)N6C(=O)[C@@H](NC(=O)OC)C(C)C)nc5c4)ccc2-3)c[nH]1)C(C)C [Ledipasvir],EC50,HCV genotype 1a,0.031 nM
same,EC50,HCV genotype 1b,0.004 nM
